The source of these data is ChEMBL document CHEMBL3832058, “DailyMed|setid=78f196d4-110e-45b1-813a-725f52c1a4eb | OXCARBAZEPINE -oxcarbazepine tablet, film coated|Bryant Ranch Prepack”.

The series has as its system Homo sapiens. Kind of series: Pharmacokinetic parameters for Oxcarbazepine and its active metabolite, 10-Monohydroxy Carbazepine evaluated after oral administration of Oxcarbazepine tablets. It counts as ADME, organism-based. The settings on record: in vivo, dosed compound id 11, dosed compound name OXCARBAZEPINE; for Excretion: tissue Urine.

As for `NC(=O)N1c2ccccc2CC(O)c2ccccc21` (configuration not stated) [LICARBAZEPINE], the Excretion is listed as 49%. Further, the Tmax (dietary status Fasting, gender male, regimen Single dose, tissue Plasma) was 4.5 h. Moreover, for the setting “dose 300 mg, regimen Single dose, tissue Plasma”, the t1/2 is 19 h. For the setting “tissue Plasma”, the “Vd(app)” value stood at 49 L and the t1/2 came out at 9 h.
For the compound `NC(=O)N1c2ccccc2CC(=O)c2ccccc21` [OXCARBAZEPINE], the Excretion worked out at 27%. In addition, for the setting “tissue Plasma”, the t1/2 worked out at 2 h.

By Tmax is commonly meant the time at which the peak concentration occurs.
